Results from patent US20230233566A1, “INHIBITION OF BMI1 ELIMINATES CANCER STEM CELLS AND ACTIVATES ANTITUMOR IMMUNITY” (The Regents of the University of California, priority 2020, published 2023).

Tests used:
pH2A.X = assay: DNA damage in SCC23 and SCC1 cells (pH2A.X, alkaline comet assay); format: cell-based, human
Protocol: (§1) Cells were lysed using the radioimmunoprecipitation assay (RIPA) buffer (Sigma-Aldrich, Cat #R0278) added with a cocktail of protease inhibitors (Thermo Fisher Scientific, Cat ##78430) and phosphatase inhibitors (Sigma-Aldrich, Cat #4906845001). Protein extracts were resolved on a 10% or 15% SDS polyacrylamide gel and then transferred to a polyvinylidene difluoride membrane. Membranes were blocked with 5% milk for 1 h and incubated with primary antibodies overnight at 4° C. Primary antibodies used in this study were: anti-phospho-STING (Ser366) (1:1,000; Cell Signaling Technology, Cat #19781), anti-STING (1:1,000; Cell Signaling Technology, Cat #13647), anti-phospho-TBK1 (Ser172) (1:1,000; Cell Signaling Technology, Cat #5483), anti-TBK1 (1:1,000; Cell Signaling Technology, Cat #3504), anti-phospho-IRF3 (Ser396) (1:1,000; Cell Signaling Technology, Cat #29047), anti-IRF3 (1:1,000; Cell Signaling Technology, Cat #4302), anti-BMI1 (1:1,000; Cell Signaling Technology, Cat #6964), anti-Ubiquityl-Histone H2A (Lys119) (1:1000, Cell Signaling Technology, Cat #8240), anti-phospho Histone H2A.X (Ser139) (1:1000; Cell Signaling Technology, Cat #9718), and anti-GAPDH (1:1000; Cell Signaling Technology, Cat #5174), anti-Histone H3 (1:2,000; Cell Signaling Technology, Cat #4499). The signals were detected using the Clarity Western ECL kit (Bio-Rad, Cat #1705060). To measure the protein levels of CCL5, CXCL9, CXCL10 and CXCL11, cells were treated with PTC209 or shBMI1 knockdown for 48 hr. After treatment, supernatants were collected, and the protein levels of CCL5, CXCL9, CXCL10 and CXCL11 were measured with ELISA (R&D Systems, Cat #DRN00B, DCX900, DIP100, DCX110) according to the manufacturer's instructions.
Single cell gel electrophoresis comet assays were performed using the SCGE assay Kit (Enzo Life Sciences, Cat #ADI-900-166). Following the treatment, cells were mixed with low melting point agarose at a volume ratio of 1:50, and 100 μl of aliquots were loaded onto pre-warmed slides. Slides were incubated in pre-chilled lysis solution for 1 h and then in pre-chilled alkaline solution for 1 h. Electrophoresis was run at 22 V in the TBE buffer for 30 min. Comets were stained with CYGREEN dye for 30 min and imaged. 50 individual cells at least per sample were evaluated in duplicates by the CASP Version 1.2.2 analysis tool.

[1] = test system: cGAS-STING-IRF3 signaling; assay: Western blot of phosphorylated STING, TBK1, IRF3; format: cell-based, human
Protocol: as §1

IFNβ = assay: qRT-PCR of IFNβ mRNA; format: cell-based, human; conditions: SCC23 cells
Protocol: (§2) For qRT-PCR, total RNA was prepared using TRIzol reagent (Thermo Fisher Scientific Cat #15596026), and 1 μg of RNA was reversely transcribed with random primer (Thermo Fisher Scientific Cat #48190011), dNTP mix (Thermo Fisher Scientific, Cat #18427013), and M-MuLV Reverse Transcriptase (New England Biolabs, Cat #M0253L). The levels of mRNA were […] measured using a SYBRGreen supermix (Bio-Rad, Cat #1708880). GAPDH was used as an internal control.

BMI1 [2] = assay: Western blot of BMI1 and H2AUb in SCC23 and SCC1 cells; format: cell-based, human
Protocol: Human SCC23 and SCC1 cells were grown in DMEM containing 10% FBS and antibiotics (streptomycin and penicillin) at 37° C. in a 5% CO2 atmosphere. To generate lentiviruses, scramble control (shCtrl, Addgene, Cat #1864; see Sarbassov et al Science 2005 Feb. 18; 307(5712):1098-101) and BMI1 specific shRNA lentiviral plasmids (shBmi1, Sigma-Aldrich, Cat #TRCN0000020156, comprising […], SEQ ID NO:35) were transfected into HEK293T cells with two helper plasmids psPAX2 (Addgene, Cat #12260) and pMD2.G (Addgene, Cat #12259). Viral supernatant was harvested 72 h after transfection and passed through a 0.45 μm filter to remove cell debris and live cells. Collected lentiviruses were used directly to infect cells with the addition of polybrene (Sigma-Aldrich, Cat #H9268), or frozen at −80° C. for later use. […]
(§3) Cells were lysed using the radioimmunoprecipitation assay (RIPA) buffer (Sigma-Aldrich, Cat #R0278) added with a cocktail of protease inhibitors (Thermo Fisher Scientific, Cat ##78430) and phosphatase inhibitors (Sigma-Aldrich, Cat #4906845001). […] The signals were detected using the Clarity Western ECL kit (Bio-Rad, Cat #1705060). […] After treatment, supernatants were collected, and the protein levels of CCL5, CXCL9, CXCL10 and CXCL11 were measured with ELISA (R&D Systems, Cat #DRN00B, DCX900, DIP100, DCX110) according to the manufacturer's instructions.

cytosolic dsDNA = assay: Cytosolic dsDNA staining (PicoGreen/MitoTracker); format: cell-based, human; conditions: SCC23 and SCC1 cells
Protocol: Following the treatment, SCC23 and SCC1 cells were incubated with culture media containing PicoGreen (dsDNA stain, 200-fold dilution, Thermo Fisher Scientific, Cat #P11496) and MitoTracker ([…], 100 nM, Thermo Fisher Scientific, Cat #M7512). One hour after incubation, cells were fixed with 4% paraformaldehyde for 10 min. Cells were then washed twice with PBS and stained with DAPI (Sigma-Aldrich, Cat #D9542) and mounted with SlowFade Antifade Reagents (Thermo Fisher Scientific, Cat #536937). Staining was imaged and assessed using a Leica SP5X laser scanning confocal microscope.

[3] = test system: promoters of CCL5, CXCL9, CXCL10 and CXCL11; assay: ChIP-qPCR on chemokine promoters; format: cell-based, human; conditions: SCC23 cells
Protocol: ChIP-qPCR assays were performed as previously described (Ding et al, 2013). Briefly, SCC cells were sequentially treated with dimethyl 3,3′-dithiobispropionimidate-HCl (DTBP; Cat #20665, Thermo Fisher Scientific) solution and formaldehyde, and harvested with a cell scraper. The cell pellet was lysed with ChIP lysis buffer and sonicated to generate 200-500 bp DNA fragments with a sonicator. The fragmented chromatins were immunoprecipitated with anti-BMI1 (Cell Signaling Technology, Cat #6964), anti-Ubiquityl-Histone H2A (Lys119) (Cell Signaling Technology, Cat #8240) overnight at 4° C. The precipitated DNA-chromatin products were purified with ChIP DNA clean & concentrator kit (Cat #D5205, Zymo Research) and the DNA levels were quantified by qPCR. Data is presented as the percentage of input DNA.

SCC23 cells = assay: qRT-PCR of ATM, DNA-PKcs, MRE11, JUN, FOSL1, MMP3, MMP9 in SCC23 cells; format: cell-based, human
Protocol: as §2

CD8+ T cells = assay: Immunostaining of CD8+ T cells in HNSCC; format: in vivo, mouse
Protocol: (§4) The immunocomplexes were detected and visualized using related secondary antibodies conjugated with Cy2 or Cy3 (Jackson ImmunoResearch Laboratories). […] At least three sections from each HNSCC lesions were immunostained and analyzed. Tumor cells (>150) and CD8+, Ac-casp3+ and Tomato^+ cells of these tumor cell areas were counted manually in each section. The percentage of CD8+, Ac-casp3^+ and Tomato^+ cells were calculated by dividing those cells with tumor cells and averaged from the sections.

[4] = test system: HNSCC lymph node metastasis; assay: Cervical lymph node metastasis by anti-PCK immunostaining; format: in vivo, mouse; conditions: given concurrently with PTC209 plus anti-PD1
Protocol: Tumor growth and cervical lymph node metastasis were examined as described before (Chen et al., 2017). Briefly, mice were sacrificed, and tongues and cervical lymph nodes were harvested immediately and the lesion surface areas were measured. For histological analysis and immunostaining, longitudinally cut tongues (dorsal/ventral) and intact lymph nodes were fixed overnight in 10% buffered formalin and paraffin-embedded. Tissue blocks were cut into 10-15 sections in 4 μm thickness and stained with hematoxylin and eosin (H&E). The SCC number was counted and areas were measured as described before (Chen et al., 2017). […] To assess lymph node metastasis, the sections of cervical lymph nodes were immunostained with anti-PCK antibodies which specifically detected epithelial tumor cells in lymph nodes (Santa Cruz, Cat #sc-8018). The percentage of lymph nodes with metastasis and their metastatic areas were measured.

BMI1+ CSCs [5] = assay: BMI1 immunostaining of CSCs in HNSCC; format: in vivo, mouse; conditions: FIG. 16C-16D
HNSCC = assay: 4NQO mouse model of HNSCC: lesion area, histology, invasion grade
Protocol: Bmi1^CreER (JAX:010531) and R26^tdTomato (JAX:007908) mouse strains were cross-mated to generate Bmi1^CreER;R26^tdTomato. K14^CreER (JAX:005107) and Bmi1^flox/flox (JAX: 028974) mouse strains were cross-mated to generate K14^CreER; Bmi1^flox/flox. […] For induction of HNSCC, six-week-old mice were treated with drinking water containing 50 ug/ml 4NQO (Santa Cruz, Cat #256815) for 16 weeks and then given normal drinking water for tumor formation and lymph node metastasis. For lineage tracing and Bmi1 knock out studies, mice were intraperitoneally injected with tamoxifen (9 mg per 40 g body weight; Sigma-Aldrich, Cat #T5648) to activate Cre.
Cisplatin (Sigma-Aldrich, Cat #479306) was dissolved in saline. PTC209 (MedChem Express, Cat #HY-15888) was dissolved in 14% DMSO, 36% polyethylene glycol 400 (Sigma-Aldrich, Cat #202304) and 50% polypropylene glycol (Sigma-Aldrich Cat #4347). […]
Briefly, mice were sacrificed, and tongues and cervical lymph nodes were harvested immediately and the lesion surface areas were measured. […] The SCC number was counted and areas were measured as described before (Chen et al., 2017). The HNSCC invasiveness was scored based on the following criteria: showing signs of normal or epithelial dysplasia appearance (grade 1); distinct invasion, unclearness of basement membrane, drop and diffuse infiltration into the superficial portion of the muscle layer (grade 2); loss of the basement membrane, extensive invasion into deep muscle layer (grade 3). To assess lymph node metastasis, the sections of cervical lymph nodes were immunostained with anti-PCK antibodies which specifically detected epithelial tumor cells in lymph nodes (Santa Cruz, Cat #sc-8018). The percentage of lymph nodes with metastasis and their metastatic areas were measured.

HNSCC tumor cells = assay: Anti-active caspase-3 (Ac-casp3) immunostaining of apoptosis in HNSCC; format: in vivo, mouse; conditions: given concurrently with PTC209 plus anti-PD1
Protocol: as §4

BMI1 [6] = assay: BMI1 expression in HNSCC tumors by immunostaining and Western blot; format: in vivo, mouse; conditions: HNSCC, FIG. 18
Protocol: as §3, with “#4906845001). Protein extracts were resolved on a 10% or 15% SDS polyacrylamide gel and then transferred to a polyvinylidene difluoride membrane. Membranes were blocked with 5% milk for 1 h and incubated with primary antibodies overnight at 4° C.” for “#4906845001).”

BMI1+ CSCs [7] = assay: In vivo labeling and lineage tracing of Tomato+ BMI1+ CSCs; parameters: species or system mouse; conditions: tamoxifen 1 day prior to sacrifice, treated 4 weeks
Protocol: as §4

BMI-1 = BMI-1 (Homo sapiens, UniProt P35226); conditions: cell-free assay; cited from earlier work
[8] = phase 1 study; cited from earlier work
[9] = given concurrently with PTC209 plus anti-PD1

Chain of BMI-1 (P35226 whole entry, species assumed): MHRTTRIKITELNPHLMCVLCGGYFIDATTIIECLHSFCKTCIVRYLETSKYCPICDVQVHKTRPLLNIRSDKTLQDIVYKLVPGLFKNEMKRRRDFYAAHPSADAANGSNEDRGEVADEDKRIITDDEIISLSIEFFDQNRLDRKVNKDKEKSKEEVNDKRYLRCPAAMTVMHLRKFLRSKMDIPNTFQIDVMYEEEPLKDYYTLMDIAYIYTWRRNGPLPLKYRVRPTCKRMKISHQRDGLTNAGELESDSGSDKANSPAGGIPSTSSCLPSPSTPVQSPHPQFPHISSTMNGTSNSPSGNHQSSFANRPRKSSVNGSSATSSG
Chain of BMI-1 (Q06587 whole entry partner, species assumed): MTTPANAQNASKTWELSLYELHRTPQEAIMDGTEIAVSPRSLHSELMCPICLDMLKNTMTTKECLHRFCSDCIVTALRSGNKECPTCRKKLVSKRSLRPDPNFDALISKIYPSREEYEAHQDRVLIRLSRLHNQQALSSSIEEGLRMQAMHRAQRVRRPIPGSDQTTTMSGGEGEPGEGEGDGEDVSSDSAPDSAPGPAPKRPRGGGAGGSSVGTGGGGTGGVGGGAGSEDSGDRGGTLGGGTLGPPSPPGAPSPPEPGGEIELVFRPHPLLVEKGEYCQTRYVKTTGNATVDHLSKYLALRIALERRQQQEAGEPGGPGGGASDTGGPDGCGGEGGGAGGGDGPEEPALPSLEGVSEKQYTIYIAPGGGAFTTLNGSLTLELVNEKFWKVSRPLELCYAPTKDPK

For “shBMI1: BMI1 specific shRNA lentiviral plasmids (Sigma-Aldrich, Cat #TRCN0000020156), SEQ ID NO:35 (CCGGCCTAATACTTTCCAGATTGATCTCGAGATCAATCTGGAAAGTATTAGGTTTTT)”, the Olive tail moment (pH2A.X; alkaline comet assay) was “significantly increased the Olive tail moment in SCC23 and SCC1 cells”, the pH2A.X (pH2A.X; immunostaining and Western blot) was “increased pH2A.X in SCC23 and SCC1 cells” and the “phosphorylation of STING (S366), TBK1 (S172) and IRF3 (S396)” value ([1]; SCC1 cells) was “induction of phosphorylation of STING (S366), TBK1 (S172) and IRF3 (S396) in SCC1 cells”. For the same compound, the “phosphorylation of STING (S366), TBK1 (S172) and IRF3 (S396)” value ([1]; SCC23 cells) was “induction of phosphorylation of STING (S366), TBK1 (S172) and IRF3 (S396) in SCC23 cells”, the “IFNβ mRNA expression” value (IFNβ) was “induction of IFNβ mRNA expression in SCC23 cells” and the “BMI1 and H2AUb levels” value (BMI1 [2]) was “reduced the expression of BMI1”. For the same compound, the “accumulation of cytosolic dsDNA” value (cytosolic dsDNA) was “induced the accumulation of cytosolic dsDNA”, the “levels of BMI1 on the promoters of CCL5, CXCL9, CXCL10 and CXCL11” value [3] was “reduction of BMI1 occupied on the promoters of CCL5, CXCL9, CXCL10, and CXCL11 in SCC23 cells” and the “levels of H2AUb marks on the promoters of CCL5, CXCL9, CXCL10 and CXCL11” value [3] was “reduction of H2AUb levels on the promoters of CCL5, CXCL9, CXCL10, and CXCL11 in SCC23 cells”. The “ATM, DNA-PKcs, and MRE11 mRNA expression” value (SCC23 cells) was “does not affect the expression of ATM, DNA-PKcs, and MRE11” and the “JUN, FOSL1, MMP3, and MMP9 mRNA expression” value (SCC23 cells) was “does not change the expression of JUN, FOSL1, MMP3, and MMP9 significantly”.

With `Cc1ccc(-c2ccc3c(c2)C=C(C(=O)Nc2ccc(C[N+](C)(C)C4CCOCC4)cc2)CCC3)cc1.[Cl-]` [TAK779] the “CD8+ T cells infiltration in HNSCC” value (CD8+ T cells; [9]) was “significantly abrogated CD8+ T cells infiltration in HNSCC”, the “lymph node metastasis of HNSCC” value [4] was “significantly lessened the inhibition of lymph node metastasis” and the “BMI1+ CSCs in HNSCC (strong BMI1 staining)” value (BMI1+ CSCs [5]) was “does not affect CSCs in HNSCC”. The “HNSCC growth (histological analysis)” value (HNSCC; [9]) was “significantly reversed the inhibition of HNSCC growth”, the visible lesion areas (HNSCC; [9]) was “significantly restored visible lesion areas” and the “apoptosis in HNSCC” value (HNSCC tumor cells) was “attenuated apoptosis in HNSCC”.

In the case of `N.N.[Cl][Pt][Cl]` [cisplatin], the “Bmi1 expression in Tomato+ CSCs (MFI of BMI1 staining)” value (BMI1 [6]) is reported as “induces Bmi1 expression in Tomato^+ CSCs”, the “CD8+ T cell infiltration in HNSCC” value (CD8+ T cells; 4NQO-induced HNSCC, treated 4 weeks) is reported as “did not significantly increase CD8+ T cell infiltration” and the “BMI1+ CSCs in HNSCC (in vivo labeling)” value (BMI1+ CSCs [7]) is reported as “significantly enriched BMI1^+ CSCs”. For the same compound, the lesion surface areas (HNSCC; 4NQO-induced HNSCC, Bmi1CreER;RosatdTomato mice, treated 4 weeks) was “reduced the lesion surface areas”.

For `O=C1C(=Cc2cccnc2)C(=O)c2ccccc21` [PRT4165, 2-(3-pyridinylmethylene)-1H-indene-1,3(2H)-dione], the IC50 (BMI-1) is given as 3.9 µM.

In the case of `Cc1nc2ccc(F)cc2n1-c1nc(N)c(F)c(Nc2ccc(C(F)(F)F)cc2)n1` [PTC596, 5-fluoro-2-(6-fluoro-2-methyl-1H-benzimidazol-1-yl)-N-[4-(trifluoromethyl)phenyl]pyrimidine-4,6-diamine], the tolerability [8] is listed as “tolerable with manageable gastrointestinal side effects”.
